These results are taken from patent publication US20040014791A1, “Thiazolidinedione derivative and its use as antidiabetic” (priority 2000, published 2004).

Data set [1] is described as follows: Flow properties: Hausner Ratio (bulk density vs tapped bulk density). Type of data set: physicochemical. The settings on record: ratio between the bulk density and the tapped bulk density; product of Example 3. The method, then:
When used herein in respect of certain compounds the term “good flow properties” is suitably characterised by the said compound having a Hausner ratio of less than or equal to 1.5, especially of less than or equal to 1.25.
Flow Properties of the Fumarate
The ratio between the bulk density and the tapped bulk density (Hausner Ratio) of the Fumarate was determined using standard methods (“Pharmaceutics—The Science of Dosage Form Design”, editor M. Aulton, 1988, published by: Churchill Livingstone).

Data set [2] is described as follows: Solid state stability of the drug substance (storage, HPLC assay for final content and degradation products). In kind it is physicochemical. The settings on record: 1 month, product of Example 3.
Description: The solid state stability of the drug substance was determined by storing approximately 1.0 g of the material in a glass bottle at a) 40° C./75% Relative Humidity (RH), open exposure, for 1 month and b) at 50° C., closed, foe 1 month. The material was assayed by HPLC for final content and degradation products in both cases.
[3] abbreviates: 40° C./75% Relative Humidity (RH), open exposure.

As to `CN(CCOc1ccc(CC2SC(=O)NC2=O)cc1)c1ccccn1.O=C(O)/C=C/C(=O)O` (centres unmarked) [Fumarate, 5-[4-[2-(N-methyl-N-(2-pyridyl)amino)ethoxy]benzyl]thiazolidine-2,4-dione fumarate], the “Hausner Ratio” value in data set [1] came out at 1.0. Further, in data set [2] (setting [3]), the “Solid state stability: HPLC assay” value was 100 % initial and the “Solid state stability: degradation observed” value is reported as “No significant degradation observed”. In data set [2] (50° C., closed), the “Solid state stability: HPLC assay” value stood at 99 % initial and the “Solid state stability: degradation observed” value is given as “No significant degradation observed”.
